Experimental data taken from PubChem BioAssay (NCI).
Values joined by “and” are separate entries in the source; they are usually repeats but may differ in a detail not shown here. Identical values can stand only once.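 Growth conditions: 96-well plates. Treatment: test compound, 48 hours, 5 concentrations. Analysis: linear interpolation between bracketing concentrations; unreached endpoints set to highest concentration. GI50 marks 50% less growth. TGI is the concentration that stops growth completely.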

Experiments:
Assay in all cases: growth of human tumour cells (NCI), 48 h
HCC-2998 colon = tested on: HCC-2998 colon
HS 578T breast = tested on: HS 578T breast
K-562 leukemia = tested on: K-562 leukemia
U251 CNS = tested on: U251 CNS
NCI-H460 lung = tested on: NCI-H460 lung
PC-3 prostate = tested on: PC-3 prostate
NCI/ADR-RES ovarian = tested on: NCI/ADR-RES ovarian
LOX IMVI melanoma = tested on: LOX IMVI melanoma
HCT-15 colon = tested on: HCT-15 colon
UO-31 renal = tested on: UO-31 renal

Row | Compound | GI50 (HCC-2998 colon) | TGI (HCC-2998 colon) | GI50 (HS 578T breast) | TGI (HS 578T breast) | GI50 (K-562 leukemia) | TGI (K-562 leukemia) | GI50 (U251 CNS) | TGI (U251 CNS) | GI50 (NCI-H460 lung) | TGI (NCI-H460 lung) | GI50 (PC-3 prostate) | TGI (PC-3 prostate) | GI50 (NCI/ADR-RES ovarian) | TGI (NCI/ADR-RES ovarian) | GI50 (LOX IMVI melanoma) | TGI (LOX IMVI melanoma) | GI50 (HCT-15 colon) | TGI (HCT-15 colon) | GI50 (UO-31 renal) | TGI (UO-31 renal)
1 | Fc1cccc(COc2ccc(Nc3ncnc4onc(-c5ccccc5)c34)cc2)c1 | 0.287 µM | 16.8 µM | 0.0974 µM | 2.02 µM | 0.101 µM | > 100 µM | 0.215 µM | > 86.8 µM | 0.0661 µM | > 53.3 µM | 0.262 µM | > 100 µM | 3.02 µM | 15.7 µM | 0.125 µM | > 100 µM | 2.43 µM | > 100 µM | 3 µM | 26.8 µM
2 | NC(=O)c1cc(N2CC2)c([N+](=O)[O-])cc1[N+](=O)[O-] | > 200 µM | > 200 µM | – | > 200 µM | > 200 µM | > 200 µM | > 200 µM | > 200 µM | – | > 77 µM | – | > 200 µM | – | > 200 µM | > 200 µM | > 200 µM | – | > 200 µM | > 200 µM | > 200 µM
3 | CSc1ccc(C2=NN(C(C)=O)C(c3ccc(-c4cc(Cl)c(Cl)cc4Cl)o3)C2)cc1 (stereo not given) | 15.8 µM | 29.6 µM | 22.8 µM | 53 µM | 14.8 µM | 34.2 µM | 16.9 µM | 30.6 µM | 17.2 µM | 32.2 µM | 11.2 µM | 30.7 µM | 16.7 µM | 34.1 µM | 15.4 µM | 28.7 µM | 14.8 µM | 28 µM | 12.4 µM | 25.4 µM
4 | CN1C(=O)CCC(N2C(=O)c3cccc(NCCOCCOCCNC(=O)c4cc5c(o4)C(=O)c4ccccc4C5=O)c3C2=O)C1=O (stereo not given) | 1.99 µM | 3.96 µM | 2.7 µM | 7.46 µM | 2.13 µM | 6.52 µM | 2.4 µM | 6.1 µM | 1.33 µM | 2.97 µM | 2.07 µM | 18 µM | 6.3 µM | 36.5 µM | 1.11 µM | 3 µM | 1.77 µM | 3.83 µM | 1.59 µM | 3.31 µM
5 | COc1ccccc1C#Cc1ccccc1C#Cc1ccc(OCCCCCCOc2ccccc2C#Cc2ccccc2C#Cc2ccccc2OC)cc1 | > 100 µM | > 100 µM | > 100 µM | > 100 µM | > 100 µM | > 100 µM | > 100 µM | > 100 µM | > 100 µM | > 100 µM | > 100 µM | > 100 µM | > 100 µM | > 100 µM | > 100 µM | > 100 µM | > 100 µM | > 100 µM | > 100 µM | > 100 µM
6 | Cc1ccc2c(C(C[N+](=O)[O-])c3ccccc3)c(-c3ccccc3)[nH]c2c1 (stereo not given) | 73.7 µM | > 95 µM | 16.8 µM | 94.3 µM | 7.14 µM | > 95 µM | 32 µM | > 95 µM | 30.1 µM | > 95 µM | 20.9 µM | > 95 µM | 14.2 µM | > 95 µM | 38.2 µM | > 95 µM | 20.7 µM | > 95 µM | 15.4 µM | > 95 µM
7 | COc1cc2nc(Nc3cccc(Cl)c3)nc(N)c2cc1OC | 1.89 µM | 3.57 µM | 6.05 µM | 31.6 µM | 3.67 µM | > 36.1 µM | 3.08 µM | 9.96 µM | 4.09 µM | 15.5 µM | 6.82 µM | 21 µM | 7.61 µM | 33.9 µM | 2.45 µM | 6.14 µM | 2.62 µM | 10.4 µM | 6.66 µM | 20.9 µM
8 | CCOC(=O)C(=Cc1ccc(C#N)cc1)C(=O)OCC | 1.81 µM | 3.43 µM | 4.19 µM | 37.9 µM | 3.44 µM | > 100 µM | 2.15 µM | 4.89 µM | 4.2 µM | 16 µM | 2.28 µM | 4.9 µM | 3.33 µM | 23.4 µM | 1.8 µM | 3.87 µM | 2.03 µM | 6.17 µM | 1.65 µM | 3.49 µM
9 | Cc1cc(OCc2nnc3n2S(=O)(=O)c2ccccc2N3C)ccc1Cl | – | > 100 µM | – | > 100 µM | – | > 100 µM | – | 43.6 µM | – | > 100 µM | – | > 100 µM | – | > 100 µM | – | > 100 µM | – | > 100 µM | – | > 100 µM
10 | O=C1C2CCN(CC2)C1CN1CCOCC1 (stereo not given) | – | 29.2 µM | – | 82.1 µM | – | 20.3 µM | – | 26.2 µM | – | 33.7 µM | – | 34.7 µM | – | 3.41 µM | – | 12.1 µM | – | 4.94 µM | – | 7.14 µM
11 | COc1ccc(Br)cc1NC(=O)Nc1cccc2c1ccn2Cc1ccnc(N)c1 | 4.41 µM and 4.33 µM | 10.1 µM and > 10 µM | 1.84 µM and 3.81 µM | 16.2 µM and > 10 µM | 2.41 µM and 2.75 µM | 8.38 µM and > 10 µM | 4.55 µM and 5.4 µM | 15.6 µM and > 10 µM | 3.85 µM and 4.2 µM | 15.1 µM and > 10 µM | 4.52 µM and 4.5 µM | > 54.8 µM | 6.08 µM and > 10 µM | 60.3 µM and > 10 µM | 1.83 µM and 2.18 µM | 3.66 µM and 5.14 µM | 2.44 µM and 2.94 µM | 6.31 µM and > 10 µM | 9.78 µM and 3.12 µM | 26.3 µM and > 10 µM
12 | COc1ccc2cc(-c3cnc4nonc4n3)ccc2c1 | 2.32 µM | > 100 µM | 1.23 µM | > 100 µM | 0.468 µM | > 100 µM | 3.21 µM | 37.3 µM | 11 µM | > 100 µM | 2.11 µM | > 100 µM | 1.32 µM | > 100 µM | 1.88 µM | > 100 µM | 0.684 µM | > 100 µM | 3.23 µM | > 100 µM
13 | OC1CC2CCC(C1)N2CCCN1c2ccccc2Sc2ccc(Cl)cc21 (stereo not given) | – | 0.959 µM | – | 4.59 µM | – | 4.61 µM | – | 3.45 µM | – | 3.25 µM | – | 4.8 µM | – | 6.32 µM | – | 3.33 µM | – | 6.65 µM | – | 7.09 µM
14 | O=C(c1c(F)c(F)c(F)c(F)c1F)c1c(F)c(F)c(F)c(F)c1F | – | 3.47 µM | – | > 26.6 µM | – | > 100 µM | – | 2.41 µM | – | 5.24 µM | – | 3.39 µM | – | 14.5 µM | – | 2.19 µM | – | 3.83 µM | – | 2.64 µM
